The term EC50 denotes the concentration needed to bring the measured effect to its halfway point.

This note sets out measurements from patent US12496301B2, “Use of androgen receptor degrader for the treatment of spinal and bulbar muscular atrophy” (Arvinas Operations, Inc., priority 2023, dated 2025).

Entries after “also recorded” stand apart in the source; their conditions may differ.

Data set [1] has as its system polyQ-AR. In words: Myotube high content imaging of polyQ-AR in myotubes that overexpress polyQ-AR. It counts as cell-based, human. On the procedure: Cells were maintained in skeletal growth medium (PromoCell #23160). Immortalized myoblasts harboring inducible human androgen receptor with 56 CAG repeats (hAR56Q) were constructed by lentiviral transduction with CMV-rtTA and TetO-AR56Q-T2A-Puromycin (Mamchaoui, K. et al. Skeletal Muscle 1, 34 (2011)).
On day 0, immortalized myoblasts with inducible polyQ-AR (described above in “Cell lines”) cells were seeded onto Geltrex-coated 96-well plates at a density of 4×10^6 cells per plate in myoblast basal media (Promocell C-23060) supplemented with 1% penicillin-streptomycin (Pen Strep) antibiotics. The plates were then incubated overnight at 37° C. in a 5% CO2 environment. Upon reaching 100% confluency (Day 1), the myoblast media were aspirated and replaced with myotube differentiation media (Promocell C-23061). The cells were cultured in this differentiation media for 6 days, with media changes occurring every three days.
On the sixth day of differentiation, the compounds and doxycycline ([…]) diluted in 100% dimethyl sulfoxide (DMSO) were added to the myotubes. The plate was then incubated for 24 hours at 37° C. in an incubator. On the following day (Day 7), the culture media was removed from the plates and replaced with 50 μL of 4% paraformaldehyde (PFA) prepared in 1× phosphate-buffered saline (PBS). The plates were incubated with PFA for 15 minutes, followed by three washes with PBS. Subsequently, the myotubes were permeabilized for 15 minutes using 0.5% Triton X-100 in 1×PBS and then blocked with 5% Bovine Serum Albumin (BSA) (Thermofisher, #37520) for one hour at room temperature. After blocking, the plates were incubated overnight at 4° C. with primary antibodies: a 1:100 diluted Androgen Receptor antibody (D6F11 Cell Signaling 5135S) and a 1:200 diluted Desmin antibody (Thermofisher, MA1-22150) in PBS containing 0.1% BSA. […] Degradation was quantified by determining the average intensity of AR within separate nuclear and cytoplasmic compartments in Desmin positive area (myotubes).

Data set [2] concerns the target T1, AR (Homo sapiens, UniProt P10275).
T1 sequence (P10275 1-920 Q868H): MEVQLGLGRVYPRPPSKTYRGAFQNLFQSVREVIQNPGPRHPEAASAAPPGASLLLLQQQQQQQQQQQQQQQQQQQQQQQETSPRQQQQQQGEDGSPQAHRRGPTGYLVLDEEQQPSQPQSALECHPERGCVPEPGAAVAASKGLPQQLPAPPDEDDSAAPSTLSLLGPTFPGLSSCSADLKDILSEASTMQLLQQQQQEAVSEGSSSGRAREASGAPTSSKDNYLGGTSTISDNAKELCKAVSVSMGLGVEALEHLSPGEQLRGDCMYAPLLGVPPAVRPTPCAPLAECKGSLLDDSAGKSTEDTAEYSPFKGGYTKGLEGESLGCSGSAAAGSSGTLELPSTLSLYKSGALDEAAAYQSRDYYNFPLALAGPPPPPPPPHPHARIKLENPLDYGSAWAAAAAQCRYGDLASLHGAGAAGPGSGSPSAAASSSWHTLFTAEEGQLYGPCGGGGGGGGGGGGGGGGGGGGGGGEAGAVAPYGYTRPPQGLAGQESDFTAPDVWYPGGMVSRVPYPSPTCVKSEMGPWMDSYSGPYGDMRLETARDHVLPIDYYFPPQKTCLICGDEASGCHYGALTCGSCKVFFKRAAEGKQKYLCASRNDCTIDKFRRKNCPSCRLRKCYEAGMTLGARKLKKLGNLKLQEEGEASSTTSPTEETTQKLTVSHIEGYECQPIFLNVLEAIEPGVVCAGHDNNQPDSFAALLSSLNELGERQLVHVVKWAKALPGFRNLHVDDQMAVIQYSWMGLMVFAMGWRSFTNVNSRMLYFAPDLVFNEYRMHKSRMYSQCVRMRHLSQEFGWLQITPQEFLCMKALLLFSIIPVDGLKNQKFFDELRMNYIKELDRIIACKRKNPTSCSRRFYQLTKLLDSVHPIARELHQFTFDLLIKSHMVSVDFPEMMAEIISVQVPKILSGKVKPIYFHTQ
Nature of the data set: AR agonism assay in MDA-MB-453 ARE-luc reporter cells in the presence of pomalidomide. The data set is classed as cell-based. The following applies: MDA-MB-453 AR luciferase reporter, with pomalidomide. The method, then:
The AR Responsive Luciferase Reporter MDA-MB-453 Stable Cell Line (MDA-MB-453 ARE-luc) was utilized for the AR agonism assay. These cells constitutively express the firefly luciferase reporter gene under the control of the androgen receptor response element. MDA-MB-453 ARE-luc cells were cultured in RPMI media (Thermo Fisher Scientific) supplemented with 5% charcoal-Dextran treated fetal bovine serum and were maintained at 37° C. in a 5% CO2 incubator. On day 0, the cells were seeded in 96-well plates at a density of 5×10^6 cells per plate. To prevent serum androgen interference during the AR agonism assay, the cells were cultured in phenol-free RPMI media without FBS. On day 1, the cells were treated with the compounds to establish concentration-response curves (CRCs). The compounds were administered at a top concentration of 300 nM with half-log dilutions. The synthetic AR agonist R1881 served as a positive control, with a top concentration of 30 nM and half-log dilutions. E3 ligase inhibitor pomalidomide was included in each well alongside the compounds at a concentration tenfold higher than that of the treated compounds. On day 2, the culture medium was removed, and luminescence data were obtained using the Bright Glo Assay (Promega, Catalog No. E2620) with 50 μL of Bright Glo buffer per well. Luminescence signals were recorded using a plate reader, and the agonism effect was calculated as a percentage using the formula: Agonism effect (%)=(Luminescence signal of compound/Maximum signal of R1881 at 30 nM)*100.
(In general: A reporter such as luciferase makes a cellular process visible.)

Data set [3] relates to hepatocyte. In words: In vitro ADMET: hepatocyte toxicity. The data set is classed as cell-based. The following applies: at 1 μM.
Data set [4] addresses hERG (Homo sapiens, UniProt Q12809). Nature of the data set: In vitro ADMET: hERG inhibition. For orientation: The hERG channel carries a current that helps repolarise heart muscle cells.
A short description of data set [5]: Oral bioavailability in non-human primates. It counts as in vivo.
For data set [6], the system named is polyQ-AR. In words: polyQ-AR degradation in SBMA patient hiPSC-derived myotubes, capillary immunoassay. The data set is classed as cell-based, human. The following applies: concentration response. The method, then:
Lysates for hiPSC-derived myotubes were prepared in lysis buffer ([…], 50 mM sodium chloride, 1% NP-40, 1% SDS) supplemented with Halt Protease Inhibitor (78437 Thermo Fisher Scientific), Benzonase, and MgCl2 (1 mM final concentration). The lysates were cleared by centrifugation at 4° C. and supernatants were quantified using the BIO-RAD DC protein assay (5000112 BIO-RAD). The AR and protein levels were quantified by an automated capillary immunoassay experiment (ProteinSimple). The AR and Myosin Protein levels were quantified and normalized to total protein.
Control and SBMA hiPSCs were differentiated into myotubes as previously described (Caron, L. et al. 2016, STEM CELLS Transl. Med. 5, 1145-1161) using the skeletal muscle differentiation kit (Amsbio). hiPSCs were dissociated to single cells using Accutase and plated on Geltrex-coated 10 cm culture plates at a density of 200,000 cells per plate with SBMA hiPSCs in skeletal muscle induction media (SKM01, AMSBIO). Media changes were performed every second day until cells were confluent (˜7 days). The resulting myogenic precursor cells were then dissociated to single cells using Accutase and replated on Matrigel-coated 24-well tissue culture plate with 500 μL of cells at 35,000 cells per mL in skeletal myoblast media (SKM02, AMSBIO). Half media changes were performed every second day until myoblasts reached confluence (˜7 days). The media was then switched to myotube medium (SKM03, ASMBIO). Media changes every second day until myotube formation was confirmed by microscopy. Myotubes were treated on day 20 of differentiation (6 days' worth of SKM03 media) with compounds diluted in DMSO for a final DMSO concentration of 0.01% in SKM03 media. The cells were lysed 24 hours later in Pierce RIPA buffer (Cat. No. 89900, ThermoFisher) supplemented with 1× Halt protease inhibitor cocktail (Cat. No. 87786, ThermoFisher), 1 mM MgCl2, and 1 μL Benzonase Nuclease. AR protein was measured by capillary electrophoresis. […]

In data set [7] the test system is polyQ-AR. Nature of the data set: Global proteomics in SBMA hiPSC-myotubes: polyQ-AR and specificity. The following applies: 12 nM, SBMA hiPSC-myotubes. It counts as cell-based, human. The source says:
(§1) (FIG. 12A). […] (FIG. 12C).

For data set [8], the target named is T2, PDE6D (Homo sapiens, UniProt O43924).
T2 construct: endogenous in cells; host or cells: SBMA hiPSC-derived myotubes
T2 sequence (O43924 whole entry): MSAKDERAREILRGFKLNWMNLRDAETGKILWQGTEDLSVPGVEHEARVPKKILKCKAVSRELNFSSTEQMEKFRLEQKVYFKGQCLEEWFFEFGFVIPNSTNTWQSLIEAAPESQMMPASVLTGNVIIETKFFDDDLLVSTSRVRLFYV
In words: Global proteomics / Western blot in SBMA hiPSC-myotubes: neosubstrate PDE6D. The data set is classed as cell-based. The settings on record: global proteomics, SBMA hiPSC-myotubes.
From the text: as §1
For orientation: A western blot detects proteins with antibodies after separation by electrophoresis.

Chain of hERG (Q12809 whole entry): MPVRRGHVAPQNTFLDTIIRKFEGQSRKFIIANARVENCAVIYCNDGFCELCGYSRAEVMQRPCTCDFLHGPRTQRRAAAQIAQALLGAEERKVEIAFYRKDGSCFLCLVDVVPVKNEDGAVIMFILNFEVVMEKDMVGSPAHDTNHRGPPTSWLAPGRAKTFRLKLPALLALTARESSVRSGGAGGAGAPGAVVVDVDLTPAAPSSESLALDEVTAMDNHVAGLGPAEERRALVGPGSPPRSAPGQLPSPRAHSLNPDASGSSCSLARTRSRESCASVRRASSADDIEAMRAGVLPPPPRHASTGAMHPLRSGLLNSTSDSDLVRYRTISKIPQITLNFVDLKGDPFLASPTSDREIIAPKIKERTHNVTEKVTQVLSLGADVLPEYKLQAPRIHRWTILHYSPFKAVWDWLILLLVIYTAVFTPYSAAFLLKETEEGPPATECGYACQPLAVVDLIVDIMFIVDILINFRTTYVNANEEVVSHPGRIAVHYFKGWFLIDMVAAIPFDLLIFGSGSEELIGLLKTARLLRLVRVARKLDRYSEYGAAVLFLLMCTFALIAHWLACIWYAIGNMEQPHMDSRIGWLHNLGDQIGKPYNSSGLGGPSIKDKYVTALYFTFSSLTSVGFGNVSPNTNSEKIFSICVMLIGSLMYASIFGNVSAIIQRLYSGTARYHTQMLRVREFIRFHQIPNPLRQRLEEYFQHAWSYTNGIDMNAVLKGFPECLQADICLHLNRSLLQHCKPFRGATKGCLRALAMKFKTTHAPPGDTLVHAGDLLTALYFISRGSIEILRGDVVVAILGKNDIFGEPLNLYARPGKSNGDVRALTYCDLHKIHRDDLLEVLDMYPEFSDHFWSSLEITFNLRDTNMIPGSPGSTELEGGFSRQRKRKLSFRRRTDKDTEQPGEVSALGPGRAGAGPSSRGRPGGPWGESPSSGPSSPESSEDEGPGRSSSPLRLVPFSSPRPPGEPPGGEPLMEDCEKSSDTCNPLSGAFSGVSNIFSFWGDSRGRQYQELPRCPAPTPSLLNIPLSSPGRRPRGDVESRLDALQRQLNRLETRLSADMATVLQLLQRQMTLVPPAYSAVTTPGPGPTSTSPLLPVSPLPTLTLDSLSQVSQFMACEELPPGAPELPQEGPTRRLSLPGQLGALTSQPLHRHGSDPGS

Regarding `Cc1cc(O[C@H]2C(C)(C)[C@H](NC(=O)c3cnc(N4CCC(CN(C(C)C)[C@H]5C[C@H](Oc6ccc7c(c6)C(=O)N(C6CCC(=O)NC6=O)C7=O)C5)CC4)nc3)C2(C)C)cc(C)c1C#N` (stereo partly shown) [Compound B], in data set [1] (24 hours treatment, nuclear compartment), the “mean Dmax for polyQ-AR in myotube nuclei” value is “increase in nuclear polyQ-AR”. Moreover, in data set [1] (data not shown), the “total polyQ-AR signal in myotubes” value is on record as “reduced the total polyQ-AR signal”. In addition, in data set [2], the “agonism activity at Emax relative to R1881” value was above 40%. Further, the EC50 in data set [2] (read-out: EC50, AR agonist activity) is 37 nM.

For the compound `CC1(C)[C@H](NC(=O)c2cnc(N3CCC(CN4CCN(c5cc6c(cc5F)C(=O)N(C5CCC(=O)NC5=O)C6=O)CC4)CC3)nc2)C(C)(C)[C@H]1Oc1ccc(C#N)c(Cl)c1` (stereo partly shown) [Compound C], the hepatocyte toxicity in data set [3] is listed as 50%.

Compound `CCN(CC1CCN(c2cnc(C(=O)N[C@H]3C(C)(C)[C@H](Oc4cc(C)c(C#N)c(C)c4)C3(C)C)cn2)CC1)[C@H]1C[C@H](Oc2ccc3c(c2)C(=O)N(C2CCC(=O)NC2=O)C3=O)C1` (stereo partly shown) [Compound D] displayed a hERG inhibition in data set [4] below 10 µM.

Take `COc1cc(O[C@H]2CC[C@H](NC(=O)c3cnc(N4CCC(CN(C(C)C)[C@H]5C[C@H](Oc6ccc7c(c6)C(=O)N(C6CCC(=O)NC6=O)C7=O)C5)CC4)cn3)CC2)ccc1C#N` (stereo partly shown) [Compound E]: the oral bioavailability result in data set [5] was “poor oral bioavailability”.

On to `CC(C)N(CC1CCN(c2ncc(C(=O)N[C@H]3C(C)(C)[C@H](Oc4ccc(C#N)c(Cl)c4)C3(C)C)cn2)CC1)[C@H]1C[C@H](Oc2ccc3c(c2)C(=O)N(C2CCCN(C)C2=O)C3=O)C1` (stereo partly shown) [Compound F, reference compound], for which the “polyQ-AR degradation in SBMA hiPSC-myotubes” value in data set [6] is recorded as “did not induce polyQ-AR degradation”. In data set [7], the “polyQ-AR degradation compared to control, global proteomics” value is recorded as “does not induce degradation; also recorded: does not degrade AR”. The PDE6D as neosubstrate result in data set [8] is recorded as “not a neosubstrate”.
